Test results published in paper PMC7413254 (Nature Communications, 2020).
Like-named read-outs stand apart in the source and are kept apart here. Where no end group is shown, it is not given here.

How the values were obtained:
Format in all cases: cell-based
PfCRT^Dd2 [1] = biological target: T1, PfCRT^Dd2 (Plasmodium falciparum, UniProt Q9N623, A220S/I356T/K76T/M74I/N326S/N75E/Q271E/R371I); experiment: cell-based
How it was run: (§1)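 Transport measured in Xenopus oocytes expressing the transporters, 1.5 h at 27.5 °C in ND96 pH 5.5 unless noted. For trans-stimulation, VF-6 injected in 25 nL ND96 at pH 5.0–7.0 or Na^+-free (choline) buffer; intracellular levels based on ~400 nL oocyte volume. Ten oocytes per treatment, ≥4 experiments.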

PfNT1 = biological target: T2, PfNT1 (Plasmodium falciparum, UniProt Q8IDM6); experiment: cell-based; details: trans-stimulation, solute 45 mM injected (estimated intracellular)
T2 construct: expressed in transfected cells; host or cells: Xenopus laevis oocytes (stage V-VI), cRNA-injected
How it was run: as §1

PfCRT^Ecu1110 [2] = biological target: T3, PfCRT^Ecu1110 (Plasmodium falciparum, UniProt Q9N623, A220S/I356L/K76T/N326D); experiment: cell-based; details: for [3H]CQ transport (% PfCRTDd2 control), trans-stimulation, PfCRTEcu1110: PfCRT-mediated component (background subtracted), sheet title says normalised to PfCRTDd2 control, mean ± SEM, SEM
How it was run: as §1

PfCRT^3D7 = PfCRT^3D7 (Plasmodium falciparum, UniProt Q8IBZ9); experiment: cell-based; details: for [3H]CQ transport, PfCRT3D7 (% PfCRT3D7 control): solute 45 mM injected (estimated intracellular)
How it was run: as §1

PfCRT^Dd2 [3] = biological target: T1, PfCRT^Dd2; experiment: [3H]CQ uptake into Xenopus oocytes, cis-inhibition by unlabelled solute; details: for PfCRT-mediated [3H]CQ transport, cis-inhibition (% PfCRTDd2 control): PfCRTDd2 oocytes, background [3H]CQ accumulation subtracted, normalised to oocyte type control
How it was run: (§2)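 Radioactivity accumulated per oocyte, read by liquid scintillation after 10% SDS lysis, served as the uptake measure. Incubations ran 1.5 h at 27.5 °C in ND96 at pH 5.5, matching digestive-vacuole acidity.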

PfCRT^Ecu1110 [4] = biological target: T3, PfCRT^Ecu1110; experiment: as above; details: for PfCRT-mediated [3H]CQ transport, cis-inhibition (% PfCRTEcu1110 control): PfCRTEcu1110 oocytes, background [3H]CQ accumulation subtracted, normalised to oocyte type control; for [3H]CQ transport (% PfCRTEcu1110 control), cis-inhibition, PfCRTEcu1110: PfCRT-mediated component (background subtracted), sheet title says normalised to PfCRTDd2 control, mean ± SEM
How it was run: as §2

[5] = trans-stimulation, Experiment 1
[6] = trans-stimulation, Experiment 2
[7] = trans-stimulation, Experiment 3
[8] = trans-stimulation, Experiment 4
[9] = read-out: PfCRT-mediated [3H]CQ transport, cis-inhibition (% PfCRTDd2 control)
[10] = read-out: PfCRT-mediated [3H]CQ transport, cis-inhibition (% PfCRTEcu1110 control)
[11] = read-out: [3H]CQ transport (% PfCRTEcu1110 control), cis-inhibition, PfCRTEcu1110, SEM

T2 sequence (Q8IDM6 whole entry): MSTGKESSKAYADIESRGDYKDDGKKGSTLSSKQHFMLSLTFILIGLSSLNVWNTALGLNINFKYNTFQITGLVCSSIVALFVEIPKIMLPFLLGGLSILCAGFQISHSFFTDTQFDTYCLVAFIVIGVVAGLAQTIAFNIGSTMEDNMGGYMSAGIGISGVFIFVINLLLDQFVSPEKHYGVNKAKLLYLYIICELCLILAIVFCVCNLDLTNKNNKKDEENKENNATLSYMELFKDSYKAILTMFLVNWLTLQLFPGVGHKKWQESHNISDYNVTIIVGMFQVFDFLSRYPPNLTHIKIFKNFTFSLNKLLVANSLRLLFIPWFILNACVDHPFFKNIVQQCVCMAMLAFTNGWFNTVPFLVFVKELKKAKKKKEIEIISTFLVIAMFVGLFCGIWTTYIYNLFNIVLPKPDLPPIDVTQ
T3 sequence (Q9N623 whole entry A220S/I356L/K76T/N326D): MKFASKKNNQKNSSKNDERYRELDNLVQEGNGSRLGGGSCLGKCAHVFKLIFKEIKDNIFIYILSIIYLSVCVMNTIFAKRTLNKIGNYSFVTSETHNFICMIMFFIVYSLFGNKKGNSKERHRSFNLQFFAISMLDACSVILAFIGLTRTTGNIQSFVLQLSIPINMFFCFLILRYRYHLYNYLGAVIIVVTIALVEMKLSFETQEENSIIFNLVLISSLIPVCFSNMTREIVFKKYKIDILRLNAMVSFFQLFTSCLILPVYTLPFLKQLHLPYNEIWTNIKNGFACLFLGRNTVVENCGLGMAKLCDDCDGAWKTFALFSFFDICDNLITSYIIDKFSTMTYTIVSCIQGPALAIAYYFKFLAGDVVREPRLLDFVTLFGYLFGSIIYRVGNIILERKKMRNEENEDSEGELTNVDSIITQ
Sequence of PfCRT^3D7 (Q8IBZ9 59-398): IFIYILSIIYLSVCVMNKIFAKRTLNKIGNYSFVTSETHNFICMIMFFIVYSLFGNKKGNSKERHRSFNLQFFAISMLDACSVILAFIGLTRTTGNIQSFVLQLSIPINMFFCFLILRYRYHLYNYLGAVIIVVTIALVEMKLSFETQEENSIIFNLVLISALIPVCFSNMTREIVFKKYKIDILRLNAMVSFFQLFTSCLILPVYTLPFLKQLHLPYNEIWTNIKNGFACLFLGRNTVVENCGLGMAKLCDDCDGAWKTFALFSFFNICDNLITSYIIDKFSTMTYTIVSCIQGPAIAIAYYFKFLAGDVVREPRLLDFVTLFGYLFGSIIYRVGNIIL
T1 sequence (Q9N623 whole entry A220S/I356T/K76T/M74I/N326S/N75E/Q271E/R371I): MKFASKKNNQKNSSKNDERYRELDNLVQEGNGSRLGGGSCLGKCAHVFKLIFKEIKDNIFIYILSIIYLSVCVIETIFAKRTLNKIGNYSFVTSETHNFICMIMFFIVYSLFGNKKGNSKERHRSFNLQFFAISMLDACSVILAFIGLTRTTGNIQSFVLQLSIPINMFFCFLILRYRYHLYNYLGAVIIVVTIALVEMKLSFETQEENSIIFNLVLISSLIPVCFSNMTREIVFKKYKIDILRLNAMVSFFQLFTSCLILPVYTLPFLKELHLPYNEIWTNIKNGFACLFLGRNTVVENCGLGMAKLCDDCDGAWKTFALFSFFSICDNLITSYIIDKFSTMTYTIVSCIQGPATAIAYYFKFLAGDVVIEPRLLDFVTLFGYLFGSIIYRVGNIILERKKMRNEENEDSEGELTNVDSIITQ

For HVDDM [HM-5], the activity at 5000 µM (PfCRT^Dd2 [1]; […], pH 5.5, read-out: PfCRT-mediated [3H]CQ transport, trans-stimulation (% PfCRTDd2 control), [test solute]i = 5 mM (intracellular), PfCRTDd2 oocytes, normalised to oocyte type control) was 100 ± 2.5%, the activity at 5000 µM (PfCRT^Dd2 [1]; […], pH 5.5, read-out: [3H]CQ transport (% PfCRTDd2 control), trans-stimulation, PfCRTDd2, trans-stimulation, [test solute]i = 5 mM (injected), PfCRT-mediated component (background subtracted), mean ± SEM, SEM) was 100 ± 2.5% and the activity at 45000 µM (PfCRT^Dd2 [1]; […], pH 5.5, read-out: [3H]CQ transport (% PfCRTDd2 control), trans-stimulation, PfCRTDd2, trans-stimulation, [test solute]i = 45 mM (30 mM for some solutes due to solubility), PfCRT-mediated component (background subtracted), mean ± SEM, SEM) was 113 ± 2.2%. The “[3H]CQ transport, PfNT1 (% PfCRTDd2 control)” value (PfNT1; Experiment 1) was 3.35 % PfCRTDd2 control, the “[3H]CQ transport, PfNT1 (% PfCRTDd2 control)” value (PfNT1; Experiment 2) was 3.11 % PfCRTDd2 control and the “[3H]CQ transport, PfNT1 (% PfCRTDd2 control)” value (PfNT1; Experiment 3) was 3.44 % PfCRTDd2 control. For the same substance, the “[3H]CQ transport, PfNT1 (% PfCRTDd2 control)” value (PfNT1; Experiment 4) was 3.27 % PfCRTDd2 control, the activity at 5000 µM (PfCRT^Ecu1110 [2]; […], pH 5.5, read-out: PfCRT-mediated [3H]CQ transport, trans-stimulation (% PfCRTEcu1110 control), [test solute]i = 5 mM (intracellular), PfCRTEcu1110 oocytes, normalised to oocyte type control) was 122 ± 1.1% and the activity at 5000 µM (PfCRT^3D7; […], read-out: PfCRT-mediated [3H]CQ transport, trans-stimulation (% PfCRT3D7 control), [test solute]i = 5 mM (intracellular), PfCRT3D7 oocytes, normalised to oocyte type control) was 130 ± 4.2%. For the same substance, the activity at 45000 µM (PfCRT^3D7; […], read-out: PfCRT-mediated [3H]CQ transport, trans-stimulation (% PfCRT3D7 control), [test solute]i = 45 mM (intracellular; 30 mM for some solutes due to solubility), PfCRT3D7 oocytes, normalised to oocyte type control) was 178 ± 5.2%, the “[3H]CQ transport, PfCRT3D7 (% PfCRT3D7 control)” value (PfCRT^3D7; [5]) was 193.43 % PfCRT3D7 control and the “[3H]CQ transport, PfCRT3D7 (% PfCRT3D7 control)” value (PfCRT^3D7; [6]) was 185.08 % PfCRT3D7 control. The “[3H]CQ transport, PfCRT3D7 (% PfCRT3D7 control)” value (PfCRT^3D7; [7]) was 185.21 % PfCRT3D7 control, the “[3H]CQ transport, PfCRT3D7 (% PfCRT3D7 control)” value (PfCRT^3D7; [8]) was 174.23 % PfCRT3D7 control and the “[3H]CQ transport (% PfCRT3D7 control), trans-stimulation, PfCRT3D7” value (PfCRT^3D7; trans-stimulation, [test solute]i = 5 mM (injected), PfCRT-mediated component (background subtracted), sheet title says normalised to PfCRTDd2 control, mean ± SEM, SEM) was 0.2 ± 0.01 % PfCRT3D7 control. The inhibition at 500 µM (PfCRT^Dd2 [3]; [9]) was 32 ± 0.8%, the inhibition at 1000 µM (PfCRT^Dd2 [3]; [9]) was 19 ± 2% and the inhibition at 2000 µM (PfCRT^Dd2 [3]; [9]) was 9 ± 0.1%. The inhibition at 1000 µM (PfCRT^Ecu1110 [4]; [10]) was 41 ± 3.5%, the inhibition at 2000 µM (PfCRT^Ecu1110 [4]; [10]) was 32 ± 2.1% and the inhibition at 500 µM (PfCRT^Ecu1110 [4]; [11]) was 14 ± 0.1%. The inhibition at 2000 µM (PfCRT^Ecu1110 [4]; [11]) was 10 ± 0.5%.

For YFPHF [YF-5], the “PfCRT-mediated [3H]CQ transport, trans-stimulation (% PfCRTDd2 control)” value (PfCRT^Dd2 [1]; [test solute]i = 5 mM (intracellular), PfCRTDd2 oocytes, normalised to oocyte type control) was 97 ± 3.4 % PfCRTDd2 control, the “PfCRT-mediated [3H]CQ transport, trans-stimulation (% PfCRTDd2 control)” value (PfCRT^Dd2 [1]; [test solute]i = 45 mM (intracellular; 30 mM for some solutes due to solubility), PfCRTDd2 oocytes, normalised to oocyte type control) was 113 ± 2.4 % PfCRTDd2 control and the “[3H]CQ transport (% PfCRTDd2 control), trans-stimulation, PfCRTDd2” value (PfCRT^Dd2 [1]; [test solute]i = 5 mM (injected), PfCRT-mediated component (background subtracted), mean ± SEM, SEM) was 97 ± 3.4 % PfCRTDd2 control. For the same substance, the “[3H]CQ transport (% PfCRTDd2 control), trans-stimulation, PfCRTDd2” value (PfCRT^Dd2 [1]; [test solute]i = 45 mM (30 mM for some solutes due to solubility), PfCRT-mediated component (background subtracted), mean ± SEM, SEM) was 113 ± 2.4 % PfCRTDd2 control, the “[3H]CQ transport, PfNT1 (% PfCRTDd2 control)” value (PfNT1; Experiment 1) was 2.73 % PfCRTDd2 control and the “[3H]CQ transport, PfNT1 (% PfCRTDd2 control)” value (PfNT1; Experiment 2) was 2.48 % PfCRTDd2 control. The “[3H]CQ transport, PfNT1 (% PfCRTDd2 control)” value (PfNT1; Experiment 3) was 2.58 % PfCRTDd2 control, the “[3H]CQ transport, PfNT1 (% PfCRTDd2 control)” value (PfNT1; Experiment 4) was 2.37 % PfCRTDd2 control and the “PfCRT-mediated [3H]CQ transport, trans-stimulation (% PfCRTEcu1110 control)” value (PfCRT^Ecu1110 [2]; [test solute]i = 5 mM (intracellular), PfCRTEcu1110 oocytes, normalised to oocyte type control) was 120 ± 2.7 % PfCRTEcu1110 control. The “PfCRT-mediated [3H]CQ transport, trans-stimulation (% PfCRTEcu1110 control)” value (PfCRT^Ecu1110 [2]; [test solute]i = 45 mM (intracellular; 30 mM for some solutes due to solubility), PfCRTEcu1110 oocytes, normalised to oocyte type control) was 131 ± 3.6 % PfCRTEcu1110 control, the “[3H]CQ transport (% PfCRTDd2 control), trans-stimulation, PfCRTEcu1110” value (PfCRT^Ecu1110 [2]; [test solute]i = 5 mM (injected)) was 37 ± 1.5 % PfCRTEcu1110 control and the “[3H]CQ transport (% PfCRTDd2 control), trans-stimulation, PfCRTEcu1110” value (PfCRT^Ecu1110 [2]; [test solute]i = 45 mM (30 mM for some solutes due to solubility)) was 40 ± 1.5 % PfCRTEcu1110 control. The “PfCRT-mediated [3H]CQ transport, trans-stimulation (% PfCRT3D7 control)” value (PfCRT^3D7; [test solute]i = 5 mM (intracellular), PfCRT3D7 oocytes, normalised to oocyte type control) was 128 ± 2.3 % PfCRT3D7 control, the “PfCRT-mediated [3H]CQ transport, trans-stimulation (% PfCRT3D7 control)” value (PfCRT^3D7; [test solute]i = 45 mM (intracellular; 30 mM for some solutes due to solubility), PfCRT3D7 oocytes, normalised to oocyte type control) was 147 ± 4.2 % PfCRT3D7 control and the “[3H]CQ transport, PfCRT3D7 (% PfCRT3D7 control)” value (PfCRT^3D7; [5]) was 142.23 % PfCRT3D7 control. The “[3H]CQ transport, PfCRT3D7 (% PfCRT3D7 control)” value (PfCRT^3D7; [6]) was 155.33 % PfCRT3D7 control, the “[3H]CQ transport, PfCRT3D7 (% PfCRT3D7 control)” value (PfCRT^3D7; [7]) was 162.85 % PfCRT3D7 control and the “[3H]CQ transport, PfCRT3D7 (% PfCRT3D7 control)” value (PfCRT^3D7; [8]) was 149.32 % PfCRT3D7 control. The “PfCRT-mediated [3H]CQ transport, cis-inhibition (% PfCRTDd2 control)” value (PfCRT^Dd2 [3]; [test solute] = 0.5 mM) was 53 ± 3.1 % PfCRTDd2 control, the “PfCRT-mediated [3H]CQ transport, cis-inhibition (% PfCRTDd2 control)” value (PfCRT^Dd2 [3]; [test solute] = 1 mM) was 39 ± 2.1 % PfCRTDd2 control and the “PfCRT-mediated [3H]CQ transport, cis-inhibition (% PfCRTDd2 control)” value (PfCRT^Dd2 [3]; [test solute] = 2 mM) was 7.2 ± 0.1 % PfCRTDd2 control. For the same substance, the “PfCRT-mediated [3H]CQ transport, cis-inhibition (% PfCRTEcu1110 control)” value (PfCRT^Ecu1110 [4]; [test solute] = 0.5 mM) was 63 ± 3.5 % PfCRTEcu1110 control, the “PfCRT-mediated [3H]CQ transport, cis-inhibition (% PfCRTEcu1110 control)” value (PfCRT^Ecu1110 [4]; [test solute] = 1 mM) was 48 ± 1.0 % PfCRTEcu1110 control and the “PfCRT-mediated [3H]CQ transport, cis-inhibition (% PfCRTEcu1110 control)” value (PfCRT^Ecu1110 [4]; [test solute] = 2 mM) was 32 ± 2.1 % PfCRTEcu1110 control. For the same substance, the “[3H]CQ transport (% PfCRTEcu1110 control), cis-inhibition, PfCRTEcu1110” value (PfCRT^Ecu1110 [4]; [test solute] = 0.5 mM, SEM) was 20 ± 0.4 % PfCRTEcu1110 control, the “[3H]CQ transport (% PfCRTEcu1110 control), cis-inhibition, PfCRTEcu1110” value (PfCRT^Ecu1110 [4]; [test solute] = 1 mM, SEM) was 15 ± 0.1 % PfCRTEcu1110 control and the “[3H]CQ transport (% PfCRTEcu1110 control), cis-inhibition, PfCRTEcu1110” value (PfCRT^Ecu1110 [4]; [test solute] = 2 mM, SEM) was 10 ± 0.3 % PfCRTEcu1110 control.
